According to patent US8415307B1, “Antibiotic compositions for the treatment of gram negative infections” (priority 2010, dated 2013):

Tests used:
[1] = system: P. aeru; assay: MIC50 and MIC90, panel of Gram negative bacterial strains (CLSI broth microdilution); assay type: cell-based, P. Aeruginosa; parameters: key to P. aeru MIC50 / P. aeru MIC90: A: a measured MIC value equal to that of polymyxin B; a measured MIC value less than the corresponding MIC value measured for polymyxin B; a measured MIC value greater than the corresponding MIC value measured for polymyxin B
Experimental: (§1) The potency and spectrum of Compound 5 was studied using a panel of Gram negative bacterial strains.
(§2) MIC testing can be performed according to Clinical and Laboratory Standards Institute (CLSI) M7-A7 (2006) broth microdilution methods. Unless otherwise indicated, MIC values are provided in units of micrograms per milliliter.
(§3) One day prior to testing, individual colonies were isolated by streaking onto rich, non-selective Tryptic Soy agar with 5% lysed sheeps blood (TSAB) with incubation at 35-37° C. for 18-24 hours.
(§4) Cultures were prepared by touching 3-5 colonies into 3 mL of cation-adjusted Mueller Hinton Broth (caMHB) in a 14-mL tube (caMHB was prepared and sterilized according to manufacturer's specifications).
(§5) OD600 of growing cultures was measured and adjusted to approximately 10^5 colony forming units per mL (CFU/mL) in caMHB for MIC inoculation (approximately OD600 0.001).
(§6) Diluted cultures were used to inoculate 50 μL per well in broth microdilution assays (final volume 100 μl per well; compounds were prepared in two-fold dilutions).
(§7) Plates were incubated 16-20 hours at 37° C., with shaking at 200 rpm.
(§8) OD600 was determined for all wells. Growth was defined as OD600>0.1. MICs were defined as the lowest concentration producing no visible turbidity (OD600<0.1).

[2] = system: P. aeruginosa #44; assay: MICs for P. aeruginosa #44 in the presence of surfactant; assay type: cell-based; parameters: key: A: a MIC value measurement that is the same as that observed for polymyxin B; a MIC value measured that is lower than the comparable value observed for polymxin B; a MIC value measured that is higher than the comparable value observed for polymyxin B; conditions: class relative to polymyxin B
Experimental: (§9) Antibacterial potency can be assessed by broth microdilution according to CLSI guidelines, plates can be incubated at 37° C., and aeration (rotation at 200 rpm) can be employed. In some assays, surfactant (Survanta, Abbott Laboratories) can be added to give a final concentration of 1, 10 and 40% in caMHB. Native polymyxin A, polymyxin B and the comparator compound of Formula II (polymyxin B decapeptide with an o-chlorophenyl urea tail) were included for comparison.

[3] = Acute toxicity testing in rats; assay type: in vivo, Sprague-Dawley rat; conditions: 1 mg/kg i.v.
Experimental: One female Sprague-Dawley rat was administered a 1 mg/kg dose of the test Compound 5. Clinical observations were taken immediately following the administration of compound and at 0.5, 1, 2 and 4 hours post-dose.

[4] = system: K. pneumoniae 933; assay: MIC against the primary screening panel (broth microdilution); assay type: cell-based; parameters: key: A: a MIC value measurement that is the same as that observed for polymyxin B; a MIC value measured that is lower than the comparable value observed for polymxin B; a MIC value measured that is higher than the comparable value observed for polymyxin B; conditions: class relative to polymyxin B
Experimental: as §9

[5] = system: P. aeruginosa 44; assay: as above; assay type: cell-based; parameters: key: A: a MIC value measurement that is the same as that observed for polymyxin B; a MIC value measured that is lower than the comparable value observed for polymxin B; a MIC value measured that is higher than the comparable value observed for polymyxin B; conditions: class relative to polymyxin B
Experimental: as §9

[6] = system: K. pneumoniae 1800 (PMX-resistant); assay: as above; assay type: cell-based; parameters: key: A: a MIC value measurement that is the same as that observed for polymyxin B; a MIC value measured that is lower than the comparable value observed for polymxin B; a MIC value measured that is higher than the comparable value observed for polymyxin B; conditions: class relative to polymyxin B
Experimental: as §9

[7] = system: A. baumannii 1570; assay: as above; assay type: cell-based; parameters: key: A: a MIC value measurement that is the same as that observed for polymyxin B; a MIC value measured that is lower than the comparable value observed for polymxin B; a MIC value measured that is higher than the comparable value observed for polymyxin B; conditions: class relative to polymyxin B
Experimental: as §9

[8] = system: E. coli; assay: MIC50-90 against small panels (n = 35); assay type: cell-based; parameters: key: A: a MIC value measurement that is the same as that observed for polymyxin B; a MIC value measured that is lower than the comparable value observed for polymxin B; a MIC value measured that is higher than the comparable value observed for polymyxin B; conditions: small panel n = 35; class relative to polymyxin B
Description: (§10) MIC's refer to the concentration of each antimicrobial agent required to inhibit the growth of a bacterial isolate, as well as the corresponding concentrations required to inhibit 50% and 90% of each group of microorganisms tested [MIC50 and MIC90, respectively, consistent with definitions in the “Instructions to Authors” for Antimicrobial Agents and Chemotherapy (Antimicrobial Agents and Chemotherapy, January 2010, p. 1-23, Vol. 54, No. 1, incorporated herein by reference)]. When only up to nine isolates of a species are tested, MIC's are reported as the MIC range of each antimicrobial agent tested. MIC values provided as numerical ranges for testing of a single bacterial strain indicate the range of MIC values obtained in repeated tests of the indicated bacteria strain.
as §9

[9] = system: K. pneumoniae; assay: MIC50-90 against small panels (n = 35); assay type: cell-based; parameters: key: A: a MIC value measurement that is the same as that observed for polymyxin B; a MIC value measured that is lower than the comparable value observed for polymxin B; a MIC value measured that is higher than the comparable value observed for polymyxin B; conditions: small panel n = 35; class relative to polymyxin B
Description: as §10, §9

[10] = system: P. aeruginosa; assay: MIC50-90 against small panels (n = 35); assay type: cell-based; parameters: key: A: a MIC value measurement that is the same as that observed for polymyxin B; a MIC value measured that is lower than the comparable value observed for polymxin B; a MIC value measured that is higher than the comparable value observed for polymyxin B; conditions: small panel n = 35; class relative to polymyxin B
Description: as §10, §9

[11] = system: A. baumannii; assay: MIC50-90 against small panels (n = 35); assay type: cell-based; parameters: key: A: a MIC value measurement that is the same as that observed for polymyxin B; a MIC value measured that is lower than the comparable value observed for polymxin B; a MIC value measured that is higher than the comparable value observed for polymyxin B; conditions: small panel n = 35; class relative to polymyxin B
Description: as §10, §9

[12] = system: K. pneu; assay: MIC50 and MIC90, panel of Gram negative bacterial strains (CLSI broth microdilution); assay type: cell-based, K. pneumonia; parameters: key to K. pneu MIC50 / K. pneu MIC90: A: a measured MIC value equal to that of polymyxin B; a measured MIC value less than the corresponding MIC value measured for polymyxin B; a measured MIC value greater than the corresponding MIC value measured for polymyxin B
Experimental: as §1, §2, §3, §4, §5, §6, §7, §8

[13] = class relative to polymyxin B, some strains multi-drug resistant

## CC(C)C[C@H]1NC(=O)[C@H](CCN)NC(=O)[C@@H](NC(=O)[C@@H](CCN)NC(=O)[C@@H](NC(=O)[C@H](CCN)NC(=O)[C@H]2C[C@@H]2c2ccccc2)C(C)O)CCNC(=O)[C@H](C(C)O)NC(=O)[C@H](CCN)NC(=O)[C@H](CCN)NC(=O)[C@H](C(C)O)NC1=O (single isomer, unassigned) [Compound 5]
[1]
  activity against P. Aeruginosa isolates: active
[1]; [13]
  P. aeru MIC50: A
  P. aeru MIC90: C
[2]; 0% surfactant
  MIC P. aeruginosa #44, 0% surfactant: C
[2]; 10% surfactant (Survanta) in caMHB
  MIC P. aeruginosa #44, 10% surfactant: B
[2]; 40% surfactant (Survanta) in caMHB
  MIC P. aeruginosa #44, 40% surfactant: B
[3]; 1 female Sprague-Dawley rat
  Acute (anaphylactoid) observations: anaphylactoid response was observed
[3]; female Sprague-Dawley rat
  Clinical signs by 0.5 hours: these signs diminished, but the rat remained hypoactive
  Clinical signs by 1 hour: no clinical signs and appeared normal
  Clinical signs immediately following the dose: flushed ears, abnormal gait, hypoactivity and squinty eyes
[4]
  MIC K. pneumoniae 933: A
[5]
  MIC P. aeruginosa 44: C
[6]
  MIC K. pneumoniae 1800 (PMX-resistant): C
[7]
  MIC A. baumannii 1570: C
[8]
  E. coli MIC50: C
  E. coli MIC90: A
[9]
  K. pneumoniae MIC50: C
  K. pneumoniae MIC90: C
[10]
  P. aeruginosa MIC50: A
  P. aeruginosa MIC90: C
[11]
  A. baumannii MIC50: C
  A. baumannii MIC90: C
[12]
  activity against K. pneumonia isolates: active
[12]; [13]
  K. pneu MIC50: C
  K. pneu MIC90: C
